According to publication PMC7179202 (Molecules, 2020):

Assays:
[1] = Stability in R10 medium and fetal calf serum (HPLC-MS); conditions: R10 medium and pure FCS, 37 °C, after 72 h
Experimental: After precipitation of the macromolecules with acetonitrile, the supernatant was investigated via HPLC-MS measurements (Figure 4).
The 10 mM stock solutions of the drugs were prepared in DMSO and diluted 1:10 with PB7.4. […] At different time points, macromolecules were precipitated by addition of 40 µL of acetonitrile, vortexed and centrifuged for 10 min at 6000 rpm. The supernatant was extracted and investigated via HPLC-MS measurements.

[2] = molecular target: c-MET (Homo sapiens, UniProt P08581); assay: Cell-free kinase inhibition assay (SelectScreen, Z'-LYTE), c-MET; conditions: for Prodrug factor c-MET = IC50 (prodrug)/IC50 (crizotinib): cell-free kinase assay
Description: (§1) The test compounds were screened in a final concentration of 1% DMSO using the Z′-LYTE® Assay.

[3] = system: non-malignant human lung fibroblasts (HLF); assay: MTT cytotoxicity assay, HLF; conditions: Fibroblast, read-out: IC50 HLF
Experimental: (§2) In addition, to assess the amount of prodrug activation in these models, the cytotoxicity of the activated drugs after (cell-free) pre-incubation with H2O2 was tested for comparison.
(§3) All samples were dissolved in DMSO and diluted to the indicated concentrations (final concentrations of DMSO were below 1%). […] Viability was measured using 3-(4,5-dimethylthiazol-2-yl)-2,5-diphenyltetrazolium bromide (MTT) based vitality assay (EZ4U; Biomedica, Vienna, Austria) following the manufacturer’s recommendations.

[4] = H2O2 activation assay (HPLC); conditions: for Product of activation with H2O2 / Release of free crizotinib: ten equivalents H2O2, phosphate buffer 50 mM pH 7.4, 37 °C; for Product of activation with H2O2: 1 h, HPLC-MS
Experimental: Therefore, the activation process was verified by incubation with ten equivalents of H2O2 in phosphate buffer (50 mM, pH 7.4) at 37 °C. […] In a complex biological environment, this quinone methide usually reacts with other nucleophiles; consequently, this side reaction can be neglected.
Additionally, a H2O2 solution (1 mM) in PB7.4 was prepared. The activation was started by addition of 5 µL of drug solution and 25 µL of H2O2 to 70 µL of PB7.4 and incubated at 37 °C for 1 h. At time point 0 and every 8 min, the sample were measured via HPLC. All measurements were performed on a ThermoFisher Ultimate 3000RS system using a Water’s Acquity BEH C18 column (3 × 50 mm, 1.7 µm) and a 5%–95% gradient of acetonitrile (+0.1% TFA) in water (+0.1% TFA). […] The results are visualized in Figure S6 for prodrug A and in Figure S7 for prodrug B.

[5] = molecular target: ALK (Homo sapiens, UniProt Q9UM73); assay: Cell-free kinase inhibition assay (SelectScreen, Z'-LYTE), ALK; conditions: for Prodrug factor ALK = IC50 (prodrug)/IC50 (crizotinib): cell-free kinase assay
Chain of ALK (Q9UM73 19-1620): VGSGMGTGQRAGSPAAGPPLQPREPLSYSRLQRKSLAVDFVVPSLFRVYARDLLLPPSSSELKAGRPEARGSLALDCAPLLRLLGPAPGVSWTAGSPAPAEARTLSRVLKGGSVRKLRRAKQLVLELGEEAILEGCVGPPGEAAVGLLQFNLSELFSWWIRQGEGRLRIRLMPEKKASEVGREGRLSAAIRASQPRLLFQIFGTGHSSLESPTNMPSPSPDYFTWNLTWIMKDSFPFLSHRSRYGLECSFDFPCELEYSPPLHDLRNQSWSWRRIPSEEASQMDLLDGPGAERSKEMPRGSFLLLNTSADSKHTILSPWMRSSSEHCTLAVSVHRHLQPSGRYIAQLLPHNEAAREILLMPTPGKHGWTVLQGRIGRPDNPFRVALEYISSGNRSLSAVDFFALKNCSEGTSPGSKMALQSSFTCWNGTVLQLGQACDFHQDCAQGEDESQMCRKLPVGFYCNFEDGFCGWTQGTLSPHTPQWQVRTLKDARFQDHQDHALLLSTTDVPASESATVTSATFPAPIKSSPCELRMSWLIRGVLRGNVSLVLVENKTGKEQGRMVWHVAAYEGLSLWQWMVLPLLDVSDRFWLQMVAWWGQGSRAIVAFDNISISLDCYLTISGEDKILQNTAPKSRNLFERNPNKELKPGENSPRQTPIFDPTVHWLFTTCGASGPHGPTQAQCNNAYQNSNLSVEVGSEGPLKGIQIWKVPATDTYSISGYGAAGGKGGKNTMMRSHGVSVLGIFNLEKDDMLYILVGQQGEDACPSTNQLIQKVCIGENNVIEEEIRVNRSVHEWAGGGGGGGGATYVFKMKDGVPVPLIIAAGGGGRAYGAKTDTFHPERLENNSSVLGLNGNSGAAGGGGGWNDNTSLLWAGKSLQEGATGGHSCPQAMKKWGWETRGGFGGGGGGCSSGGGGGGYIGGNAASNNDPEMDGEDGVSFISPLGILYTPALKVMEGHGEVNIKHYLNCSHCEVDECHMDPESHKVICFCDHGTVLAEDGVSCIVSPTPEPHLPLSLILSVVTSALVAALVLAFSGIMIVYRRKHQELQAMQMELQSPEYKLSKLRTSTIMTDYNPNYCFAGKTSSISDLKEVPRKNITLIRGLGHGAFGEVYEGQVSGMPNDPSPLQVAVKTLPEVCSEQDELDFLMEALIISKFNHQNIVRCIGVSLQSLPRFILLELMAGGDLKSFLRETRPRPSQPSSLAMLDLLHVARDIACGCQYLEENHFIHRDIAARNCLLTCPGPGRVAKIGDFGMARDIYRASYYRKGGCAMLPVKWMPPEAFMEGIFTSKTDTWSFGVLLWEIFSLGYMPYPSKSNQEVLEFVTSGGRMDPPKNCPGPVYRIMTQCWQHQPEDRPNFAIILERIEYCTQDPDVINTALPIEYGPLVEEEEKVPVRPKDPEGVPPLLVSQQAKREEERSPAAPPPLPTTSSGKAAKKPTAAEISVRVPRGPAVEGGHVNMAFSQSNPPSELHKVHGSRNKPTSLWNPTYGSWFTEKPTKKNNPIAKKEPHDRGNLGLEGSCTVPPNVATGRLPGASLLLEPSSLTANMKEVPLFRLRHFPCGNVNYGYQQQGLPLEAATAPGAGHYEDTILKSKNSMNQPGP
Description: as §1

[6] = system: H1993 (c-MET-dependent non-small cell lung cancer); assay: MTT cytotoxicity assay, H1993; conditions: for IC50: Homo sapiens, NCI-H1993, read-out: IC50 H1993; for Ratio of IC50 ±H2O2, H1993: IC50 without / with H2O2 pre-incubation
Experimental: as §2, §3

[7] = system: RUMH (c-MET-overexpressing renal cell carcinoma); assay: MTT cytotoxicity assay, RUMH; conditions: for IC50: Homo sapiens, read-out: IC50 RUMH; for Ratio of IC50 ±H2O2, RUMH: IC50 without / with H2O2 pre-incubation
Experimental: as §2, §3

[8] = system: H2228 (ALK-dependent non-small cell lung cancer); assay: MTT cytotoxicity assay, H2228; conditions: for IC50: Homo sapiens, NCI-H2228, read-out: IC50 H2228; for Ratio of IC50 ±H2O2, H2228: IC50 without / with H2O2 pre-incubation
Experimental: as §2, §3

[9] = design: method as in PMID 28256516; conditions: approved orally applied drug, SwissADME prediction; cited from earlier work

Chain of c-MET (P08581 25-1390): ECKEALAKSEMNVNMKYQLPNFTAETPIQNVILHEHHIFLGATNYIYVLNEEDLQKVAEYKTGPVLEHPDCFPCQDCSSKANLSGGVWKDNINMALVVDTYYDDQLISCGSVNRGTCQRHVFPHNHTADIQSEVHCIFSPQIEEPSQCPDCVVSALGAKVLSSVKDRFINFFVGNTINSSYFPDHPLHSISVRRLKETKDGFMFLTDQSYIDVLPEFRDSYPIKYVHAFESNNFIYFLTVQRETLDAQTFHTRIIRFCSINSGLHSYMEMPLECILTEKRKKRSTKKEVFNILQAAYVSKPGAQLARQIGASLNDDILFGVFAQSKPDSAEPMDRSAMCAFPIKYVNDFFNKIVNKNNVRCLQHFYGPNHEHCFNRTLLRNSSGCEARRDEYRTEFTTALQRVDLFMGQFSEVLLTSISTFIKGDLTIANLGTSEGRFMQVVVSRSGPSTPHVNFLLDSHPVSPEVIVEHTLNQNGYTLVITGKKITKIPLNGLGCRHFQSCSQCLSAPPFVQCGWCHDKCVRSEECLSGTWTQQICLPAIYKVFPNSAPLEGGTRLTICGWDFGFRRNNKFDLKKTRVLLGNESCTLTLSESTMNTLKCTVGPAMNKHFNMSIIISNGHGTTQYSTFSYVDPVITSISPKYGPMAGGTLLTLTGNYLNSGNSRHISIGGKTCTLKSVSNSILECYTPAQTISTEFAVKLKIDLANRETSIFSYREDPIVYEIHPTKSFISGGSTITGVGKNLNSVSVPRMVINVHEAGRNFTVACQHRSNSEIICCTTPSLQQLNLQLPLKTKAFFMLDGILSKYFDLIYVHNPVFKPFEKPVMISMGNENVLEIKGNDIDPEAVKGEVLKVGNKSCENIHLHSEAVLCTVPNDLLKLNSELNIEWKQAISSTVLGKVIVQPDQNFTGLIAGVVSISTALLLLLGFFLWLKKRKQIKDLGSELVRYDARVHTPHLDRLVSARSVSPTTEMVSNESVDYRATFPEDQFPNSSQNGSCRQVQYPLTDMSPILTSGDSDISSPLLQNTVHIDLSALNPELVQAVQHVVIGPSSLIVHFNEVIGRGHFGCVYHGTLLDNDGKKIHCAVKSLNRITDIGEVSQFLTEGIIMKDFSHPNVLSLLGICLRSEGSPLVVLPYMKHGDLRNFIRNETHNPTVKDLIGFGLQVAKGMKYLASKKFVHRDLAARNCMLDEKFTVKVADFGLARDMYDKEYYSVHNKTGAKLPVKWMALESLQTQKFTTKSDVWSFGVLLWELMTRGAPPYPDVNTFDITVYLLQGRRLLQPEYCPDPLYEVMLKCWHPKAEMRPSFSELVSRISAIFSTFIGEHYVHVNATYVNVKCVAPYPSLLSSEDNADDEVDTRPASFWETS

Prodrug still intact [1] | IC50 [2] | Prodrug factor c-MET = IC50 (prodrug)/IC50 (crizotinib) [2] | IC50 [5] | Prodrug factor ALK = IC50 (prodrug)/IC50 (crizotinib) [5] | Time to activation on incubation with H2O2 ([4]; incubation with H2O2) | Release of free crizotinib ([4]; after 10 min) | Release of free crizotinib ([4]; after 1 h) | SMILES | IC50 [3] | Product of activation with H2O2 [4] | Product of activation with H2O2 ([4]; listed as prodrug B) | IC50 [6] | Ratio of IC50 ±H2O2, H1993 [6] | IC50 [7] | Ratio of IC50 ±H2O2, RUMH [7] | IC50 [8] | Ratio of IC50 ±H2O2, H2228 [8] | GI absorption (predicted) [9]
30–40% | 0.684 µM | 137 | 0.333 µM | 16 |  |  |  | C[C@@H](Oc1cc(-c2cnn(C3CCNCC3)c2)cnc1NCc1ccc(B(O)O)cc1)c1c(Cl)ccc(F)c1Cl [Prodrug B, (R)-(4-(((3-(1-(2,6-Dichloro-3-fluorophenyl)ethoxy)-5-(1-(piperidin-4-yl)-1H-pyrazol-4-yl)pyridin-2-yl)amino)methyl)phenyl)boronic acid] | 8.99 ± 0.36 µM | formation of a hydrolyzed but stable phenol derivative, compound C | formation of compound C rather than the release of crizotinib | 10.2 ± 1.68 µM | 0.87 | 5.05 ± 0.44 µM | 0.91 | 8.3 ± 0.42 µM | 0.92 | 
 |  |  |  |  |  |  |  | C[C@@H](Oc1cc(-c2cnn(C3CCNCC3)c2)cnc1NCc1ccc(O)cc1)c1c(Cl)ccc(F)c1Cl [Compound C, (R)-4-(((3-(1-(2,6-Dichloro-3-fluorophenyl)ethoxy)-5-(1-(piperidin-4-yl)-1H-pyrazol-4-yl)pyridin-2-yl)amino)methyl)phenol] | 4.03 ± 0.04 µM |  |  | 9.96 ± 2.69 µM |  | 5.94 ± 1.09 µM |  | 7.23 ± 0.28 µM |  | 
 |  |  |  |  |  |  |  | C[C@@H](Oc1cc(-c2cnn(C3CCNCC3)c2)cnc1N)c1c(Cl)ccc(F)c1Cl [Crizotinib, reference compound] | 6.32 ± 0.39 µM |  |  | 3.18 ± 0.26 µM |  | 6.08 ± 1.51 µM |  |  |  | 
 |  |  |  |  |  |  |  | CS(=O)(=O)CCNCc1ccc(-c2ccc3ncnc(Nc4ccc(OCc5cccc(F)c5)c(Cl)c4)c3c2)o1 [lapatinib] |  |  |  |  |  |  |  |  |  | low
 | 0.055 µM | 11 | 0.472 µM | 22 | ≤ 1 h | ~ 50% | ~ 75% | C[C@@H](Oc1cc(-c2cnn(C3CCNCC3)c2)cnc1NC(=O)OCc1ccc(B(O)O)cc1)c1c(Cl)ccc(F)c1Cl [Prodrug A, (R)-(4-((((3-(1-(2,6-Dichloro-3-fluorophenyl)ethoxy)-5-(1-(piperidin-4-yl)-1H-pyrazol-4-yl)pyridin-2-yl)carbamoyl)oxy)methyl)phenyl)boronic acid] | 16.8 ± 1.38 µM |  |  | 9.73 ± 2.63 µM | 1.22 | 14 ± 3.92 µM | 1.57 | 23.1 ± 0.47 µM | 1.62 | 
